Literature values as cited in patent publication US12161674B2, “CRISPR-CAS9 modified CD34+ human hematopoietic stem and progenitor cells and uses thereof” (Vertex Pharmaceuticals Incorporated, priority 2018, dated 2024).

System: CD34^+ cells
Conditions: plerixafor alone

subjects with non-severe pain crisis (despite RBC transfusions in the preceding 2 months): 3 of 7
SMILES: c1cc(CN2CCCNCCNCCCNCC2)ccc1CN1CCCNCCNCCCNCC1 [plerixafor]
median collection of CD34^+ cells after a single apheresis (subjects with severe SCD, range 5.1 to 20.0): 10.4×10^6 CD34^+ cells/kg
